Test results taken from US9018208B2, “Heterocycles as potassium channel modulators” (Icagen Inc., priority 2007, dated 2015).

Each compound was assayed on SH-SY5Y M-currents (KCNQ2, KCNQ3 and KCNQ5) (assay: SH-SY5Y native cell line FLIPR assay (voltage-sensitive dye DiBAC)). Details: FLIPR assay, SH-SY5Y native cell line; Table 2; read-out: SH-SY5Y EC50.
Format: cell-based, mouse neuroblastoma, rat glioma hybrid cell line
Outline: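 Response is peak DiBAC fluorescence change, normalised to the maximum from a positive control agent, sampled every 30 s over 25 min. Before compound addition, SH-SY5Y cells differentiated with PGE1 plus isomethylbutylxanthine were dye-loaded for 1 h in EBSS with […] DiBAC.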

Compared with `O=C(Cc1ccc(F)cc1)Nc1nc2ncc(Cl)cn2c1-c1ccc(C(F)(F)F)cc1` [Compound 317, N-(6-chloro-3-(4-(trifluoromethyl)phenyl)imidazo[1,2-a]pyrimidin-2-yl)-2-(4-fluorophenyl)acetamide], `O=C(Cc1ccc(F)cc1)Nc1nc2ncc(Cl)cn2c1-c1cccc(Cl)c1` [Compound 320, N-(6-chloro-3-(3-chlorophenyl)imidazo[1,2-a]pyrimidin-2-yl)-2-(4-fluorophenyl) acetamide] is higher in EC50: 500 to 3000 nM for the first, 3000 to 10000 nM for the second. The first is the more potent here.

First: CC(CC(=O)Nc1nc2ncc(Cl)cn2c1-c1ccc(C(F)(F)F)cc1)C(F)(F)F (centres unmarked) [Compound 318, N-(6-chloro-3-(4-(trifluoromethyl)phenyl)imidazo[1,2-a]pyrimidin-2-yl)-4,4,4-trifluoro-3-methylbutanamide]
Second: CC(C)(C)CC(=O)Nc1nc2ncc(Cl)cn2c1-c1ccc(C(F)(F)F)cc1 [Compound 322, N-(6-chloro-3-(4-(trifluoromethyl)phenyl)imidazo[1,2-a]pyrimidin-2-yl)-3,3-dimethylbutanamide]
The EC50 of the first is lower: 500 to 3000 nM for the first, 3000 to 10000 nM for the second. The first is the more potent here.

`CC(C)(C)CC(=O)Nc1nc2ncc(Cl)cn2c1-c1cccc(Cl)c1` [Compound 319, N-(6-chloro-3-(3-chlorophenyl)imidazo[1,2-a]pyrimidin-2-yl)-3,3-dimethylbutanamide] and `CC(C)(C)CC(=O)Nc1nc2ncccn2c1-c1cccc(Cl)c1` [Compound 329, N-(3-(3-chlorophenyl)imidazo[1,2-a]pyrimidin-2-yl)-3,3-dimethylbutanamide] fall in the same range of EC50: 3000 to 10000 nM for the first, 3000 to 10000 nM for the second.

`CC(CC(=O)Nc1nc2ncc(Cl)cn2c1-c1cccc(Cl)c1)C(F)(F)F` (centres unmarked) [Compound 321, N-(6-chloro-3-(3-chlorophenyl)imidazo[1,2-a]pyrimidin-2-yl)-4,4,4-trifluoro-3-methylbutanamide] and `CC(CC(=O)Nc1nc2ncccn2c1-c1cccc(Cl)c1)C(F)(F)F` (centres unmarked) [Compound 331, N-(3-(3-chlorophenyl)imidazo[1,2-a]pyrimidin-2-yl)-4,4,4-trifluoro-3-methylbutanamide] fall in the same range of EC50: 3000 to 10000 nM for the first, 3000 to 10000 nM for the second.

First: CC(C)(C)CC(=O)Nc1nc2ncccn2c1-c1cccc(OC(F)(F)F)c1 [Compound 323, 3,3-dimethyl-N-(3-(3-(trifluoromethoxy)phenyl)imidazo[1,2-a]pyrimidin-2-yl)butanamide]
Second: CC(C)(C)CC(=O)Nc1nc2ncc(F)cn2c1-c1cccc(OC(F)(F)F)c1 [Compound 333, N-(6-fluoro-3-(3-(trifluoromethoxy)phenyl)imidazo[1,2-a]pyrimidin-2-yl)-3,3-dimethylbutanamide]
The EC50 of the first is higher: 3000 to 10000 nM for the first, 500 to 3000 nM for the second.

First: O=C(Cc1ccc(F)cc1)Nc1nc2ncccn2c1-c1cccc(OC(F)(F)F)c1 [Compound 324, 2-(4-fluorophenyl)-N-(3-(3-(trifluoromethoxy)phenyl)imidazo[1,2-a]pyrimidin-2-yl)acetamide]
Second: O=C(Cc1ccc(F)cc1)Nc1nc2ccccn2c1-c1cccc(OC(F)(F)F)c1 [Compound 344, 2-(4-fluorophenyl)-N-(3-(3-(trifluoromethoxy)phenyl)imidazo[1,2-a]pyridin-2-yl)acetamide]
The EC50 of the first is higher: 3000 to 10000 nM for the first, under 500 nM for the second. The second is the more potent here.

First: CC(CC(=O)Nc1nc2ncccn2c1-c1cccc(OC(F)(F)F)c1)C(F)(F)F (centres unmarked) [Compound 325, 4,4,4-trifluoro-3-methyl-N-(3-(3-(trifluoromethoxy)phenyl)imidazo[1,2-a]pyrimidin-2-yl)butanamide]
Second: CC(CC(=O)Nc1nc2ccccn2c1-c1cccc(OC(F)(F)F)c1)C(F)(F)F (centres unmarked) [Compound 343, 4,4,4-trifluoro-3-methyl-N-(3-(3-(trifluoromethoxy)phenyl)imidazo[1,2-a]pyridin-2-yl)butanamide]
The EC50 of the first is higher: 3000 to 10000 nM for the first, 500 to 3000 nM for the second.

`O=C(Nc1nc2ccc(F)cn2c1-c1ccc(OC(F)(F)F)cc1)C1CCC(F)(F)CC1` [Compound 326, 4,4-difluoro-N-(6-fluoro-3-(4-(trifluoromethoxy)phenyl)imidazo[1,2-a]pyridin-2-yl)cyclohexanecarboxamide] and `O=C(Nc1nc2ccc(F)cn2c1-c1cccc(OC(F)(F)F)c1)C1CCC(F)(F)CC1` [Compound 327, 4,4-difluoro-N-(6-fluoro-3-(3-(trifluoromethoxy)phenyl)imidazo[1,2-a]pyridin-2-yl)cyclohexanecarboxamide] cannot be ordered by EC50: under 500 nM for the first, under 500 nM for the second.

Compared with `O=C(Nc1nc2ccc(F)cn2c1-c1cccc(C(F)(F)F)c1)C1CCC(F)(F)CC1` [Compound 328, 4,4-difluoro-N-(6-fluoro-3-(3-(trifluoromethyl)phenyl)imidazo[1,2-a]pyridin-2-yl)cyclohexanecarboxamide], `O=C(Nc1nc2ccc(F)cn2c1-c1ccc(C(F)(F)F)cc1)N1CCC(F)(F)CC1` [Compound 345, 4,4-difluoro-N-(6-fluoro-3-(4-(trifluoromethyl)phenyl)imidazo[1,2-a]pyridin-2-yl)piperidine-1-carboxamide] is higher in EC50: under 500 nM for the first, 500 to 3000 nM for the second.

First: O=C(Cc1ccc(F)cc1)Nc1nc2ncccn2c1-c1cccc(Cl)c1 [Compound 330, N-(3-(3-chlorophenyl)imidazo[1,2-a]pyrimidin-2-yl)-2-(4-fluorophenyl)acetamide]
Second: O=C(Cc1ccc(F)cc1)Nc1nc2ccccn2c1-c1cccc(C(F)(F)F)c1 [Compound 338, 2-(4-fluorophenyl)-N-(3-(3-(trifluoromethyl)phenyl)imidazo[1,2-a]pyridin-2-yl)acetamide]
The EC50 of the first is higher: 3000 to 10000 nM for the first, 500 to 3000 nM for the second.

First: CC(C)(C)CC(=O)Nc1nc2ncc(F)cn2c1-c1cccc(C(F)(F)F)c1 [Compound 332, N-(6-fluoro-3-(3-(trifluoromethyl)phenyl)imidazo[1,2-a]pyrimidin-2-yl)-3,3-dimethylbutanamide]
Second: CC(C)(C)CC(=O)Nc1nc2ccccn2c1-c1cccc(C(F)(F)F)c1 [Compound 336, 3,3-dimethyl-N-(3-(3-(trifluoromethyl)phenyl)imidazo[1,2-a]pyridin-2-yl)butanamide]
The EC50 of the first is higher: 3000 to 10000 nM for the first, 500 to 3000 nM for the second.

`O=C(Nc1nc2ccc(F)cn2c1-c1ccc(OC(F)(F)F)c(F)c1)C1CCC1` [Compound 334, N-(6-fluoro-3-(3-fluoro-4-(trifluoromethoxy)phenyl)imidazo[1,2-a]pyridin-2-yl)cyclobutanecarboxamide] and `O=C(Nc1nc2ccc(F)cn2c1-c1cccc(Cl)c1)C1CCC1` [Compound 335, N-(3-(3-chlorophenyl)-6-fluoroimidazo[1,2-a]pyridin-2-yl)cyclobutanecarboxamide] fall in the same range of EC50: 500 to 3000 nM for the first, 500 to 3000 nM for the second.

First: CC(CC(=O)Nc1nc2ccccn2c1-c1cccc(C(F)(F)F)c1)C(F)(F)F (centres unmarked) [Compound 337, 4,4,4-trifluoro-3-methyl-N-(3-(3-(trifluoromethyl)phenyl)imidazo[1,2-a]pyridin-2-yl)butanamide]
Second: CC(C)(C)CC(=O)Nc1nc2ccccn2c1-c1cccc(OC(F)(F)F)c1 [Compound 342, 3,3-dimethyl-N-(3-(3-(trifluoromethoxy)phenyl)imidazo[1,2-a]pyridin-2-yl)butanamide]
The EC50 of the first is higher: 500 to 3000 nM for the first, under 500 nM for the second.

Compared with `COc1ccc2nc(NC(=O)CC(C)(C)C)c(-c3cccc(C(F)(F)F)c3)n2n1` [Compound 339, N-(6-methoxy-3-(3-(trifluoromethyl)phenyl)imidazo[1,2-b]pyridazin-2-yl)-3,3-dimethylbutanamide], `COc1ccc2nc(NC(=O)CC(C)(C)C)c(-c3cccc(OC(F)(F)F)c3)n2n1` [Compound 346, N-(6-methoxy-3-(3-(trifluoromethoxy)phenyl)imidazo[1,2-b]pyridazin-2-yl)-3,3-dimethylbutanamide] is lower in EC50: 500 to 3000 nM for the first, under 500 nM for the second. The second is the more potent here.

Compared with `CC(=O)O[C@H](C(=O)Nc1nc2ccc(F)cn2c1-c1ccc(C(F)(F)F)cc1)C(C)(C)C` [Compound 340, (S)-1-(6-fluoro-3-(4-(trifluoromethyl)phenyl)imidazo[1,2-a]pyridin-2-ylamino)-3,3-dimethyl-1-oxobutan-2-yl acetate], `CC(C)(C)[C@H](O)C(=O)Nc1nc2ccc(F)cn2c1-c1ccc(C(F)(F)F)cc1` [Compound 341, (S)—N-(6-fluoro-3-(4-(trifluoromethyl)phenyl)imidazo[1,2-a]pyridin-2-yl)-2-hydroxy-3,3-dimethylbutanamide] is lower in EC50: 3000 to 10000 nM for the first, 500 to 3000 nM for the second. The second is the more potent here.

Same assay, conditions: SH-SY5Y native cell line, FLIPR assay (Table 3); read-out: SH-SY5Y EC50

Compared with `CC(C)(C)CC(=O)Nc1nc2ccc(F)cn2c1-c1ccccn1` [Compound 347, N-(6-fluoro-3-(pyridin-2-yl)imidazo[1,2-a]pyridin-2-yl)-3,3-dimethylbutanamide], `CC(C)(C)CC(=O)Nc1nc2ccc(F)cn2c1-c1ccc(F)cn1` [Compound 352, N-(6-fluoro-3-(5-fluoropyridin-2-yl)imidazo[1,2-a]pyridin-2-yl)-3,3-dimethylbutanamide] is lower in EC50: 3000 to 10000 nM for the first, 500 to 3000 nM for the second.

`CC(C)(C)CC(=O)Nc1nc2ccc(F)cn2c1-c1cccnc1` [Compound 348, N-(6-fluoro-3-(pyridin-3-yl)imidazo[1,2-a]pyridin-2-yl)-3,3-dimethylbutanamide] and `CC(C)(C)CC(=O)Nc1nc2ccc(F)cn2c1-c1ccncc1` [Compound 351, N-(6-fluoro-3-(pyridin-4-yl)imidazo[1,2-a]pyridin-2-yl)-3,3-dimethylbutanamide] fall in the same range of EC50: 3000 to 10000 nM for the first, 3000 to 10000 nM for the second.

`CC(C)(C)CC(=O)Nc1nc2ccc(F)cn2c1-c1ccc(F)nc1` [Compound 349, N-(6-fluoro-3-(6-fluoropyridin-3-yl)imidazo[1,2-a]pyridin-2-yl)-3,3-dimethylbutanamide] and `CC(C)(C)CC(=O)Nc1nc2ccc(F)cn2c1-c1ccc(C#N)nc1` [Compound 350, N-(3-(6-cyanopyridin-3-yl)-6-fluoroimidazo[1,2-a]pyridin-2-yl)-3,3-dimethylbutanamide] fall in the same range of EC50: 500 to 3000 nM for the first, 500 to 3000 nM for the second.

`CC(C)(C)CC(=O)Nc1nc2ccc(F)cn2c1-c1ccc(C#N)cn1` [Compound 354, N-(3-(5-cyanopyridin-2-yl)-6-fluoroimidazo[1,2-a]pyridin-2-yl)-3,3-dimethylbutanamide] and `CC(C)(C)CC(=O)Nc1nc2ccc(F)cn2c1-c1cncc(C(F)(F)F)c1` [Compound 355, N-(6-fluoro-3-(5-(trifluoromethyl)pyridin-3-yl)imidazo[1,2-a]pyridin-2-yl)-3,3-dimethylbutanamide] fall in the same range of EC50: 3000 to 10000 nM for the first, 3000 to 10000 nM for the second.
